Values quoted from earlier work in patent US20040210280A1, “Plaster-type chip systems for thermodynamic control of topical dermal and transdermal systems” (BIONICS PHARMA GmbH, priority 2002, published 2004).

What was measured:
[1] = in vivo
[2] = in vivo; remark: listed apart in the source

125I-labelled insulin: previously injected 125I-labelled insulin
rate of disappearance from the subcutaneous tissue [1]: increased rate of disappearance

O=[N+]([O-])OCC(CO[N+](=O)[O-])O[N+](=O)[O-] [nitroglycerine]
concentrations of nitroglycerine in the plasma [2]: increased by two to three times | plasma concentrations of nitroglycerine [2]: decrease
